Earlier results on 1 compound are cited in article PMC6270209, “Synthesis, Antimycobacterial Activity and In Vitro Cytotoxicity of 5-Chloro-N-phenylpyrazine-2-carboxamides” (Molecules, 2013).

Molecules are shown by their SMILES.

The series deals with M. tbc strains (PZA-sensitive, PZA-resistant). Further details: method as in PMID 9527809. Conditions: cited from earlier work.

`NC(=O)c1cnc(Cl)cn1` [Compound 5-Cl-PZA, 5-chloropyrazine-2-carboxamide, reference compound]: the “MIC for PZA-resistant strains” value (PZA-resistant strains) is 8 to 64 µg/mL. The “MIC for PZA-sensitive M. tbc strains” value (PZA-sensitive strains) was 8 to 32 µg/mL.
